From US6429209B2, “Methods for treating irritable bowel syndrome” (SmithKline Beecham Corporation, priority 1997, dated 2002)
Like-named read-outs stand apart in the source and are kept apart here.

Assays:
[1] = system: IBS patients; details: cited from earlier work
[2] = system: IBS patients; test: 12-week placebo-controlled clinical study of alosetron (1, 2, 4 or 8 mg BID) in nonconstipated IBS patients; type: in vivo, human; details: for % Responders (adequate relief of IBS pain and discomfort): 12 weeks; for % Days with Urgency / Stool # per day / Stool Consistentcy: mean, week 9-12 interval; for Stool Consistentcy: score 1= very hard to 5= watery; for % Weeks with adequate relief: median
Protocol: Three hundred and seventy IBS patients were randomised for study: 80 were randomised to treatment with placebo BID, 72 to 1 mg BID alosetron, 74 to 2 mg BID alosetron, 76 to 4 mg BID alosetron and 68 to 8 mg BID alosetron. […] Patients were required to have symptoms which fulfilled the Rome Criteria for IBS (5) for at least 6 months. […] Daily and weekly symptom data were collected using a recently described electronic touch-tone telephone based system (24,25). Patients underwent a 2 week screening period with no IBS treatment to ensure sufficient baseline level of abdominal pain as well as compliance with the data collection system. Pain was assessed daily on a 5 point scale (0=none; 1=mild; 2=moderate; 3=intense; 4=severe). Average baseline pain over the 2 week screening period was required to be between 1.5-3.3, inclusive, and at least 4 days with at least moderate pain was required for enrolment into the study. Stool consistency data were also collected (1=very hard; 2=hard; 3=formed; 4=loose; and 5=watery). During the screening period an average stool consistency score of ≧2.5 was required for entry into the study in order to exclude those with predominant constipation. Following the screening period, eligible patients were randomised with equal allocation to 12 weeks of study medication (BID) of placebo or alosetron 1, 2, 4 or 8 mg taken prior to meals. Patients were followed for 2 weeks post-treatment. During the screening period, treatment phase and follow-up period, patients were asked daily questions about their IBS symptoms. Once every 7 days, during the treatment phase of the study, patients responded to an additional question as to whether they had obtained adequate relief of their IBS-related abdominal pain and discomfort during the previous 7 days. For this study, a responder was prospectively defined as a patient who completed the treatment phase of the study and reported adequate relief of their IBS pain and discomfort for at least 6 weeks. […] In addition, a monthly responder was defined as a patient who reported adequate relief of their IBS pain and discomfort for at least 2 weeks per month. For the monthly analysis, a last observation carried forward procedure was employed, whereby a month with all missing weeks was assigned the number of weeks with adequate relief from the previous non-missing month. Thus, this analysis satisfied the Intent-to-Treat principle by including all patients and months. Treatment groups were compared for the proportion of patients defined as responders, for both endpoints, using a Mantel-Haenszel test stratified for investigator cluster. Finally, the proportion of weeks with adequate relief was compared between treatment groups using a log-rank test. Daily stool consistency scores and daily number of bowel movements were averaged over the baseline, weekly for weeks 1-4, and monthly (weeks 1-4, 5-8, and 9-12) intervals. In addition, the proportion of days patients experienced a sense of urgency was calculated over the monthly and weekly intervals. For the monthly intervals, the treatment groups were compared for change from baseline using a van Elteren test adjusted for investigator cluster. For the weekly intervals, the treatment groups were compared at each week using a van Elteren test adjusted for-investigator cluster.

[3] = system: normal volunteers; details: cited from earlier work
[4] = female patients, alosetron 1 mg BID
[5] = female patients, alosetron 1 mg BID, month 1
[6] = female patients, alosetron 1 mg BID, month 2
[7] = female patients, alosetron 1 mg BID, month 3
[8] = female patients, alosetron 2 mg BID
[9] = female patients, alosetron 4 mg BID
[10] = female patients, alosetron 8 mg BID

## CN1C2CCCC1CC(NC(=O)c1nn(C)c3ccccc13)C2 (stereo not shown) [granisetron]
[1]; IBS patients
  post-prandial motor activity: reduce post-prandial motor activity
  rectal sensitivity: decrease in rectal sensitivity

## Cc1[nH]cnc1CN1CCc2c(c3ccccc3n2C)C1=O [Alosetron, 2,3,4,5-tetrahydro-5-methyl-2-[(5-methyl-1 H-imidazol-4-yl)methyl]-1H-pyrido[4,3-b]indol-1-one]
[1]; IBS patients, preliminary reports
  colonic transit: slow colonic transit
[1]; preliminary reports
  abdominal pain: improve abdominal pain
[2]; female IBS patients
  abdominal pain and bowel function: significantly improved
[2]; [4]
  more responders for adequate relief as compared to placebo: 27%
  % Responders (adequate relief of IBS pain and discomfort): 60%
  % Days with Urgency: 33.0%
  Stool # per day: 1.4
  Stool Consistentcy: 2.1
  % Weeks with adequate relief: 58%
[2]; female patients, alosetron 1 mg BID, each month
  monthly adequate relief: statistically significant improvement
[2]; [5]
  % Responders, monthly intervals (adequate relief): 53%
  increase in monthly responders above placebo: 21%
[2]; [6]
  % Responders, monthly intervals (adequate relief): 62%
  increase in monthly responders above placebo: 20%
[2]; [7]
  % Responders, monthly intervals (adequate relief): 60%
  increase in monthly responders above placebo: 24%
[2]; [8]
  % Responders (adequate relief of IBS pain and discomfort): 59%
  % Days with Urgency: 35.9%
  Stool # per day: 1.7
  Stool Consistentcy: 2.2
  % Weeks with adequate relief: 50%
[2]; [9]
  % Responders (adequate relief of IBS pain and discomfort): 51%
  % Days with Urgency: 37.8%
  Stool # per day: 1.8
  Stool Consistentcy: 2.4
  % Weeks with adequate relief: 50%
[2]; [10]
  % Responders (adequate relief of IBS pain and discomfort): 52%
  % Days with Urgency: 41.5%
  Stool # per day: 1.3
  Stool Consistentcy: 1.8
  % Weeks with adequate relief: 50%
[2]; female patients, benefit persisted throughout 12 week treatment
  time of treatment after which a statistically significant benefit over placebo in bowel parameters was achieved: 1 week
[2]; female patients, most doses of alosetron
  stool consistency, bowel movement frequency and proportion of days with urgency as compared to placebo: significantly improved
[2]; male patients
  proportion of weeks with adequate relief: no meaningful benefit
[2]; male patients, alosetron 1 mg BID
  % Responders (adequate relief of IBS pain and discomfort): 20%
[2]; male patients, alosetron 2 mg BID
  % Responders (adequate relief of IBS pain and discomfort): 50%
[2]; male patients, alosetron 4 mg BID
  % Responders (adequate relief of IBS pain and discomfort): 54%
[2]; male patients, alosetron 8 mg BID
  % Responders (adequate relief of IBS pain and discomfort): 52%
[2]; male population, any dose of alosetron
  responders for adequate relief relative to placebo: No meaningful improvement relative to placebo
[2]; males
  bowel-related functions with the exception of stool consistency, versus placebo: no significant improvement over placebo
[2]; males, any month, any dose of alosetron
  monthly adequate relief relative to placebo: No improvement relative to placebo
[2]; males, doses of alosetron higher than 1 mg BID
  stool consistency: improved significantly
[2]; nonconstipated female IBS patients
  tolerability: well tolerated

## Cc1nccn1CC1CCc2c(c3ccccc3n2C)C1=O (stereo not shown) [ondansetron]
[1]; diarrhoea-predominant IBS patients
  stool consistency: improves stool consistency
[1]; patients with IBS
  rectal compliance: increases rectal compliance
[3]; healthy volunteers, early postprandial period
  contractile response of the colon: inhibits the contractile response of the colon
[3]; normal volunteers
  colonic transit: slow colonic transit
